Data reported in patent US20030007993A1, “biomedical devices with antimicrobial cationic peptide and protein coatings” (priority 2000, published 2003).
No end group written: not given here.

B1: Secretory leukocyte protease inhibitor (protein, UniProt P03973 26-132, looked up)
Antileukoproteinase: SGKSFKAGVCPPKKSAQCLRYKKPECQSDWQCPGKKRCCPDTCGIKCLDPVDTPNPTRRKPGKCPVTYGQCLMLNPPNFCEMDGQCKRDLKCCMGMCGKSCVSPVKA
notes: cationic protein, source human

What was measured:
bacteria = test: surface coatings: adherence and growth of bacteria on the device (summary statements); assay type: cell-based; conditions: coated lenses, in words; for viability of adhered cells: compared to the cells adhered to the uncoated lens
Protocol: (§1) For conducting total counts, etafilcon A lenses were removed from the manufacturers vials, washed three times in 1 ml PBS and then coated with various concentrations of cationic proteins/peptides overnight at 37° C. either individually or in combination. After incubation, the lenses were washed three times in PBS and 0.5 ml of 1×10^8 bacterial cells/ml was added to the lenses. After incubation at ambient temperature for 10 min, the lenses were washed three times in PBS to remove non-adherent or loosely adherent bacteria and stained with crystal violet for 1 min. The number of cells per lens was examined under the microscope. Five grids (0.005625 mm^2) per lens were counted and triplicate lenses for each treatment were assayed.
(§2) For conducting viable counts, etafilcon A lenses were removed from the manufacturers vials, washed three times in 1 ml PBS and then coated with various concentrations of cationic proteins/peptides overnight at 37° C. (either individually or in combination). After incubation, the lenses were washed three times in PBS and 0.5 ml of 1×10^8 bacterial cells/ml was added to the lenses. After incubation at ambient temperature for 10 min, the lenses were washed three times in PBS to remove non-adherent or loosely adherent bacteria. Lenses were then homogenized using 1 ml PBS and a small magnetic stirring bar (octagonal cross-section, 0.5″×0.125″) and stirred at maximum speed for one hour which was sufficient for lens disintegration. Serial dilutions were then made according to the technique of Miles and Misra and aliquots (20 μL) plated out on nutrient agar. After incubation overnight at 37° C., viable bacteria were determined and results expressed as colony forming units/mm^2 after calculation of the surface area of the lens (approximately 310 mm^2).
(§3) The lenses were incubated in concentrations of cationic proteins/peptides that were either effective in solution or the highest concentration available if there was no effect in solution. After rinsing, bacteria were added and numbers of cells analyzed as the total cells per mm^2 of the lens or the number of viable cells per mm^2 of the lens.

P. aeruginosa 6294 = test: bacterial adhesion (total counts) and viable counts on coated etafilcon A lenses; assay type: cell-based, Pseudomonas aeruginosa; design: key to Reduction v. control* / Reduction v. total**: “—” indicates no reduction in adhesion; conditions: for Reduction v. control* / Reduction v. total**: strain 6294
Protocol: as §1, §2, §3

S. aureus 31 = test: as above; assay type: cell-based, Staphylococcus aureus; design: key to Reduction v. control* / Reduction v. total**: “—” indicates no reduction in adhesion; conditions: for Reduction v. control* / Reduction v. total**: strain Saur 31; for Reduction v. control*: coated etafilcon A lens compared to adhesion control lens not coated; for Reduction v. total**: compared to the number of total bacterial cells adhered to coated lens (growth of adhered bacteria)
Protocol: as §1, §2, §3

[1] = system: Pseudomonas aeruginosa 6294; test: growth of bacteria in solution with cationic proteins/peptides (slow growing in PBS, rapid growing in TSB); assay type: cell-based
Protocol: (§4) To assess the effect of the cationic proteins/peptides in solution against rapid growing bacterial cells, bacteria were cultured in Trypticase soy broth (“TSB”) overnight at 35° C. Aliquots (20 μl) of this cell suspension were then added to fresh TSB (10 ml). Different concentrations of the cationic proteins/peptides were added to the fresh broth and incubated for up to 48 h at 35° C. Samples were taken at different time points and the optical density at 660 nm measured as a measure of changes in bacterial numbers was measured.
(§5) To assess the effect of the cationic proteins/peptides in solution against slow growing bacterial cells, cells were grown as previously in TSB. The cells were then harvested by centrifugation and washed in phosphate buffered saline (PBS; NaCl 8 g/l; KCl 0.2 g/l; Na2HPO4 1.15 g/l; KH2PO4 0.2 g/l). The cells were then re-suspended to OD 0.1 (unless otherwise stated) at 660 nm in PBS, different concentrations of cationic proteins/peptides were added and incubated for up to 48 h at 35° C. Samples were taken a different points and numbers of bacteria analyzed using the Miles and Misra technique (i.e. numbers that are viable after plating dilutions onto nutrient agar plates).
(§6) The results obtained in solution for all cationic proteins and peptides studied are shown on Table 3. Most protein/peptides were screened against only P. aeruginosa 6294 and S. aureus 31.
(§7) In Table 3, slow growing cells are those re-suspended in PBS with cationic protein/peptide and rapid growing are those re-suspended in TSB plus cationic protein/peptide. The numbers in μg/ml are in concentration showing peak activity. A “−” sign indicates no reduction in bacterial growth, a “+” sign indicates a 1 to 50% reduction in growth, a “++” sign indicates a 51 to 89% reduction in growth, a “+++” sign indicates a 90 to 98% reduction in growth a “++++” sign indicates a greater than 98% reduction in growth.

[2] = system: gram-positive and gram-negative bacteria; test: growth of bacteria in solution (summary statement); assay type: cell-based; conditions: in words
Protocol: as §4, §5, §6

[3] = system: Staphylococcus intermedius Sint 2; test: growth of bacteria in solution with cationic proteins/peptides (slow growing in PBS, rapid growing in TSB); assay type: cell-based; design: key: A “−” sign indicates no reduction in bacterial growth; —: A “−” sign indicates no reduction in bacterial growth; a “+” sign indicates a 1 to 50% reduction in growth; a “++” sign indicates a 51 to 89% reduction in growth; a “+++” sign indicates a 90 to 98% reduction in growth; a “++++” sign indicates a greater than 98% reduction in growth
Protocol: as §4, §5, §6, §7

Serratia marcesens Smar5 = test: as above; assay type: cell-based; design: key: A “−” sign indicates no reduction in bacterial growth; —: A “−” sign indicates no reduction in bacterial growth; a “+” sign indicates a 1 to 50% reduction in growth; a “++” sign indicates a 51 to 89% reduction in growth; a “+++” sign indicates a 90 to 98% reduction in growth; a “++++” sign indicates a greater than 98% reduction in growth; conditions: Smar 5
Protocol: as §4, §5, §6, §7

[4] = system: Staphylococcus aureus Saur31; test: as above; assay type: cell-based; conditions: Saur 31
Protocol: as §4, §5, §6, §7

[5] = system: Pseudomonas aeruginosa Paer1; test: as above; assay type: cell-based; conditions: Paer 1; 24 h, 15 μg/ml slow growing
Protocol: as §4, §5, §6, §7

[6] = system: Pseudomonas aeruginosa 6206; test: as above; assay type: cell-based; design: key: A “−” sign indicates no reduction in bacterial growth; —: A “−” sign indicates no reduction in bacterial growth; a “+” sign indicates a 1 to 50% reduction in growth; a “++” sign indicates a 51 to 89% reduction in growth; a “+++” sign indicates a 90 to 98% reduction in growth; a “++++” sign indicates a greater than 98% reduction in growth
Protocol: as §4, §5, §6, §7

[7] = coated etafilcon A lens compared to adhesion control lens not coated
[8] = compared to the number of total bacterial cells adhered to coated lens (growth of adhered bacteria)
[9] = slow growing (PBS), 125-1000 μg/ml

Row | Molecule | Reduction v. control* (P. aeruginosa 6294; [7]) | Reduction v. total** (P. aeruginosa 6294; [8]) | Reduction v. control* (S. aureus 31) | Reduction v. total** (S. aureus 31) | further results
1 | Cecropin A | — | 93% | — | — | viability of adhered cells (bacteria): significant reduction in the viability; total adhesion of bacteria (bacteria): did not reduce the total adhesion
2 | Cecropin P1 | — | — | — | — | 
3 | Defensin HNP-1 | — | — | — | — | reduction in bacterial growth ([1]; 2 μg/ml): +(2 μg/ml) (a “+” sign indicates a 1 to 50% reduction in growth)
4 | Magainin 1 (GIGKFLHSAGKFGKAFVGEIMKS; Magainin-1; UniProt P11006 37-59, looked up) [cationic peptide, source frog] | — | — | — | — | 
5 | Magainin 2 | — | — | — | — | reduction in bacterial growth ([1]; 24 h, 400 μg/ml, slow growing): +++(24 h, (a “+++” sign indicates a 90 to 98% reduction in growth)
6 | Melittin | 70% |  | 60% |  | preventing the growth of gram-positive and gram-negative bacteria in solution [2]: most efficacious; initial adhesion of S. aureus 31 (S. aureus 31; coated lenses, in words): reduced initial adhesion; reduction in bacterial growth ([3]; 24 h, 15 μg/ml rapid growing): ++++(24 h, (a “++++” sign indicates a greater than 98% reduction in growth); reduction in bacterial growth ([3]; 24 h, 15 μg/ml slow growing): ++++(24 h, (a “++++” sign indicates a greater than 98% reduction in growth); reduction in bacterial growth (Serratia marcesens Smar5; growth state not given, 15 μg/ml): —; reduction in bacterial growth ([4]; 15 μg/ml rapid growing): ++++ (a “++++” sign indicates a greater than 98% reduction in growth); reduction in bacterial growth ([4]; 24 h, 15 μg/ml slow growing): ++++(24 h, (a “++++” sign indicates a greater than 98% reduction in growth); reduction in bacterial growth ([1]; 24 h, 15 μg/ml slow growing): ++(24 h, (a “++” sign indicates a 51 to 89% reduction in growth); reduction in bacterial growth [5]: ++++(24 h, (a “++++” sign indicates a greater than 98% reduction in growth)
7 | Melittin-1-13 AA | — | — | — | — | reduction in bacterial growth ([4]; 48h, 24h, 1000 μg/ml): ++(48h, (a “++” sign indicates a 51 to 89% reduction in growth); reduction in bacterial growth ([1]; 24h, 1000 μg/ml): ++(24h, (a “++” sign indicates a 51 to 89% reduction in growth)
8 | Nisin |  |  | — | 50% | viability of adhered cells (bacteria): significant reduction in the viability; total adhesion of bacteria (bacteria): did not reduce the total adhesion; reduction in bacterial growth ([1]; 2 μg/ml): ++(2 μg/ml) (a “++” sign indicates a 51 to 89% reduction in growth)
9 | Protamine | 80% | 80% | — | — | preventing the growth of gram-positive and gram-negative bacteria in solution [2]: most efficacious; viability of the cells on the coated lenses (P. aeruginosa 6294; P. aeruginosa 6294, in words): reduced the viability; adhesion of P. aeruginosa 6294 to the lenses (P. aeruginosa 6294; coated lenses, in words): significantly reduced the adhesion; reduction in bacterial growth [6, 9]: ++++(slow (a “++++” sign indicates a greater than 98% reduction in growth); reduction in bacterial growth ([3]; rapid growing (TSB), 125-1000 μg/ml): −(rapid; reduction in bacterial growth [3, 9]: ++++ (slow (a “++++” sign indicates a greater than 98% reduction in growth); reduction in bacterial growth (Serratia marcesens Smar5; 1000 μg/ml slow growing): ++++(1000 (a “++++” sign indicates a greater than 98% reduction in growth); reduction in bacterial growth (Serratia marcesens Smar5; <1000 μg/ml slow growing): −(<1000
10 | Transferrin |  |  |  |  | Reduction v. control* (P. aeruginosa 6294; 125 μg/ml, compared to adhesion control lens not coated): —; Reduction v. total** (P. aeruginosa 6294; 125 μg/ml, compared to total bacterial cells adhered to coated lens): —
11 | β Defensin 1 (DHYNCVSSGGQCLYSACPIFTKIQGTCYRGKAKCCK; ends and bridges not checked; cysteine pairing not given here; UniProt P60022 33-68, looked up) [cationic peptide, source human] | — | — | — | — | reduction in bacterial growth ([1]; 24h, 60 μg/ml): ++(24h, (a “++” sign indicates a 51 to 89% reduction in growth)
12 | B1 | — | — | — | — | reduction in bacterial growth ([6]; growth state not given, 10-100 μg/ml): —
